Experimental data published in ChEMBL document CHEMBL5442219.

Columns and labels:
Conditions in all cases: Compound concentration 10 µM
[1] = target: 5-hydroxytryptamine receptor 5A (Homo sapiens) (UniProt P47898)
Description: PDSP Primary Binding target: HTR5A - Compounds are tested at 10 uM concentration, plate are incubated at room temperature in the dark for 90 minutes. Reaction are stopped by vacuum filtration onto 0.3% polyethyleneimine soaked filter mats using Filtermate harvester. Scintilation cocktail is then melted onto microwave-dried filters on a hot plate and the radio activity is counted in Microbia counter.

[2] = target: 5-hydroxytryptamine receptor 6 (Homo sapiens) (UniProt P50406)
Description: PDSP Primary Binding target: HTR6 - Compounds are tested at 10 uM concentration, plate are incubated at room temperature in the dark for 90 minutes. Reaction are stopped by vacuum filtration onto 0.3% polyethyleneimine soaked filter mats using Filtermate harvester. Scintilation cocktail is then melted onto microwave-dried filters on a hot plate and the radio activity is counted in Microbia counter.

[3] = target: D(1A) dopamine receptor (Homo sapiens) (UniProt P21728)
Description: PDSP Primary Binding target: DRD1 - Compounds are tested at 10 uM concentration, plate are incubated at room temperature in the dark for 90 minutes. Reaction are stopped by vacuum filtration onto 0.3% polyethyleneimine soaked filter mats using Filtermate harvester. Scintilation cocktail is then melted onto microwave-dried filters on a hot plate and the radio activity is counted in Microbia counter.

[4] = target: T1, D(4) dopamine receptor (Homo sapiens) (UniProt P21917)
T1 sequence (whole entry): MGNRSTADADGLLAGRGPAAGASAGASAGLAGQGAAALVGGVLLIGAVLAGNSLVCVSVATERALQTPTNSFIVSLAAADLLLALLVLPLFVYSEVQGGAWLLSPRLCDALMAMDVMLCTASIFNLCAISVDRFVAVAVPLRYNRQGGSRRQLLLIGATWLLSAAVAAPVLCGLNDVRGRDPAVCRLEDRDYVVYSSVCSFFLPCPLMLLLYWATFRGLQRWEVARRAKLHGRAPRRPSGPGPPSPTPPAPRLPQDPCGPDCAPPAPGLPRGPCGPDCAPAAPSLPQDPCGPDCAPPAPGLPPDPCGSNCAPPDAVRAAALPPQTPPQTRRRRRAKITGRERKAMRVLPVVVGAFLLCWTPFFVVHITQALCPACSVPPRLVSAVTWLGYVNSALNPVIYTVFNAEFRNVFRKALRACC
Description: PDSP Primary Binding target: DRD4 - Compounds are tested at 10 uM concentration, plate are incubated at room temperature in the dark for 90 minutes. Reaction are stopped by vacuum filtration onto 0.3% polyethyleneimine soaked filter mats using Filtermate harvester. Scintilation cocktail is then melted onto microwave-dried filters on a hot plate and the radio activity is counted in Microbia counter.

[5] = target: T2, Muscarinic acetylcholine receptor M4 (Homo sapiens) (UniProt P08173)
T2 sequence (whole entry): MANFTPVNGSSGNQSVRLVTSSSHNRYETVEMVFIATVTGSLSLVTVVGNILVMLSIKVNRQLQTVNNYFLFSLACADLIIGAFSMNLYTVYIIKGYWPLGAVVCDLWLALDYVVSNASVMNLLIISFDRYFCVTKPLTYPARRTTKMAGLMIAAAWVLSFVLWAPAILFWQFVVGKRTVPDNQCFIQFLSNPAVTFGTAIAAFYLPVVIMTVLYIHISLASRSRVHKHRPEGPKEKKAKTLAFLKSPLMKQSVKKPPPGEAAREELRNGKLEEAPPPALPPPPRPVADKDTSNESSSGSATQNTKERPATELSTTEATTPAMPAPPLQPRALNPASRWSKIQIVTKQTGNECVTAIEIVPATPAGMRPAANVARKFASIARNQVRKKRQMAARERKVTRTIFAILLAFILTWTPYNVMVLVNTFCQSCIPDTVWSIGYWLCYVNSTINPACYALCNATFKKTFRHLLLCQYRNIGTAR
Description: PDSP Primary Binding target: CHRM4 - Compounds are tested at 10 uM concentration, plate are incubated at room temperature in the dark for 90 minutes. Reaction are stopped by vacuum filtration onto 0.3% polyethyleneimine soaked filter mats using Filtermate harvester. Scintilation cocktail is then melted onto microwave-dried filters on a hot plate and the radio activity is counted in Microbia counter.

[6] = target: Beta-1 adrenergic receptor (Homo sapiens) (UniProt P08588)
Description: PDSP Primary Binding target: ADRB1 - Compounds are tested at 10 uM concentration, plate are incubated at room temperature in the dark for 90 minutes. Reaction are stopped by vacuum filtration onto 0.3% polyethyleneimine soaked filter mats using Filtermate harvester. Scintilation cocktail is then melted onto microwave-dried filters on a hot plate and the radio activity is counted in Microbia counter.

[7] = target: Translocator protein (Homo sapiens) (UniProt P30536)
Description: PDSP Primary Binding target: TSPO - Compounds are tested at 10 uM concentration, plate are incubated at room temperature in the dark for 90 minutes. Reaction are stopped by vacuum filtration onto 0.3% polyethyleneimine soaked filter mats using Filtermate harvester. Scintilation cocktail is then melted onto microwave-dried filters on a hot plate and the radio activity is counted in Microbia counter.

[8] = target: 5-hydroxytryptamine receptor 1E (Homo sapiens) (UniProt P28566)
Description: PDSP Primary Binding target: HTR1E - Compounds are tested at 10 uM concentration, plate are incubated at room temperature in the dark for 90 minutes. Reaction are stopped by vacuum filtration onto 0.3% polyethyleneimine soaked filter mats using Filtermate harvester. Scintilation cocktail is then melted onto microwave-dried filters on a hot plate and the radio activity is counted in Microbia counter.

[9] = target: T3, Alpha-1A adrenergic receptor (Homo sapiens) (UniProt P35348)
T3 sequence (whole entry): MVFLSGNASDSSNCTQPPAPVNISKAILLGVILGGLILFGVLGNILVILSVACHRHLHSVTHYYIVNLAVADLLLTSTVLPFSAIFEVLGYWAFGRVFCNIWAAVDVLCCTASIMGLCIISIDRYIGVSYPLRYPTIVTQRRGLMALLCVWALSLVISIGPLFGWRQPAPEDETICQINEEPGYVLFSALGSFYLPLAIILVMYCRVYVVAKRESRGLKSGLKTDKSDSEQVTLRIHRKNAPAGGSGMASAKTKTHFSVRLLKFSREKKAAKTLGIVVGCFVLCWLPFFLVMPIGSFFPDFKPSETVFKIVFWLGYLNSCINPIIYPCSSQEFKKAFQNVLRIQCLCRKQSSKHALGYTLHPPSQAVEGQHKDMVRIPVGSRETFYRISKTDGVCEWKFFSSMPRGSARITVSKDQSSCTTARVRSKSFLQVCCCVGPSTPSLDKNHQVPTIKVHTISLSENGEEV
Description: PDSP Primary Binding target: ADRA1A - Compounds are tested at 10 uM concentration, plate are incubated at room temperature in the dark for 90 minutes. Reaction are stopped by vacuum filtration onto 0.3% polyethyleneimine soaked filter mats using Filtermate harvester. Scintilation cocktail is then melted onto microwave-dried filters on a hot plate and the radio activity is counted in Microbia counter.

[10] = target: T4, 5-hydroxytryptamine receptor 1A (Homo sapiens) (UniProt P08908)
T4 sequence (whole entry): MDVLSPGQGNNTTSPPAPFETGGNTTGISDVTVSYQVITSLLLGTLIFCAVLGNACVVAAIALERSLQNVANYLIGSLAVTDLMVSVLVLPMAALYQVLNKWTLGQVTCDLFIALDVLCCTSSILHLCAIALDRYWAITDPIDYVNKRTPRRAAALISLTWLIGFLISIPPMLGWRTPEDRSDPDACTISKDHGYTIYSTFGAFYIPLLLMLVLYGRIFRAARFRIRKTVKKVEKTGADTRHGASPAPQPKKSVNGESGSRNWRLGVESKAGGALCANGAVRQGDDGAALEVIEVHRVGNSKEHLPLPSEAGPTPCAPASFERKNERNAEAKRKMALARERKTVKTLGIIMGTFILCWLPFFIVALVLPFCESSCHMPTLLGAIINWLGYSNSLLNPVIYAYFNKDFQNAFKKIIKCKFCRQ
Description: PDSP Primary Binding target: HTR1A - Compounds are tested at 10 uM concentration, plate are incubated at room temperature in the dark for 90 minutes. Reaction are stopped by vacuum filtration onto 0.3% polyethyleneimine soaked filter mats using Filtermate harvester. Scintilation cocktail is then melted onto microwave-dried filters on a hot plate and the radio activity is counted in Microbia counter.

[11] = target: 5-hydroxytryptamine receptor 1B (Homo sapiens) (UniProt P28222)
Description: PDSP Primary Binding target: HTR1B - Compounds are tested at 10 uM concentration, plate are incubated at room temperature in the dark for 90 minutes. Reaction are stopped by vacuum filtration onto 0.3% polyethyleneimine soaked filter mats using Filtermate harvester. Scintilation cocktail is then melted onto microwave-dried filters on a hot plate and the radio activity is counted in Microbia counter.

[12] = target: D(2) dopamine receptor (Homo sapiens) (UniProt P14416)
Description: PDSP Primary Binding target: DRD2 - Compounds are tested at 10 uM concentration, plate are incubated at room temperature in the dark for 90 minutes. Reaction are stopped by vacuum filtration onto 0.3% polyethyleneimine soaked filter mats using Filtermate harvester. Scintilation cocktail is then melted onto microwave-dried filters on a hot plate and the radio activity is counted in Microbia counter.

[13] = target: Sodium-dependent dopamine transporter (Homo sapiens) (UniProt Q01959)
Description: PDSP Primary Binding target: SLC6A3 - Compounds are tested at 10 uM concentration, plate are incubated at room temperature in the dark for 90 minutes. Reaction are stopped by vacuum filtration onto 0.3% polyethyleneimine soaked filter mats using Filtermate harvester. Scintilation cocktail is then melted onto microwave-dried filters on a hot plate and the radio activity is counted in Microbia counter.

[14] = target: Beta-2 adrenergic receptor (Homo sapiens) (UniProt P07550)
Description: PDSP Primary Binding target: ADRB2 - Compounds are tested at 10 uM concentration, plate are incubated at room temperature in the dark for 90 minutes. Reaction are stopped by vacuum filtration onto 0.3% polyethyleneimine soaked filter mats using Filtermate harvester. Scintilation cocktail is then melted onto microwave-dried filters on a hot plate and the radio activity is counted in Microbia counter.

[15] = target: T5, Alpha-2B adrenergic receptor (Homo sapiens) (UniProt P18089)
T5 sequence (whole entry): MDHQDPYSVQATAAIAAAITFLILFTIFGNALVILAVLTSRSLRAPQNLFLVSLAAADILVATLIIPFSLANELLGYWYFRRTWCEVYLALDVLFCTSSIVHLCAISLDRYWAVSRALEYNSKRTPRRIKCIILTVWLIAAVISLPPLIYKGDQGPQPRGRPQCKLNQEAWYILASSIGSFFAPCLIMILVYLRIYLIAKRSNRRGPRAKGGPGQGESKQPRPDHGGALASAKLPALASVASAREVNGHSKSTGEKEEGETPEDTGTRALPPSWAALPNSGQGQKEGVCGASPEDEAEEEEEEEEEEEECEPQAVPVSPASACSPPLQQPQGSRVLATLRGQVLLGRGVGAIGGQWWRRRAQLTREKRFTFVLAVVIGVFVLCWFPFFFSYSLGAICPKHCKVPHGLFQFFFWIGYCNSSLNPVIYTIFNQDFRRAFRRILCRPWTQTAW
Description: PDSP Primary Binding target: ADRA2B - Compounds are tested at 10 uM concentration, plate are incubated at room temperature in the dark for 90 minutes. Reaction are stopped by vacuum filtration onto 0.3% polyethyleneimine soaked filter mats using Filtermate harvester. Scintilation cocktail is then melted onto microwave-dried filters on a hot plate and the radio activity is counted in Microbia counter.

[16] = target: Kappa-type opioid receptor (Homo sapiens) (UniProt P41145)
Chain of Kappa-type opioid receptor (Homo sapiens) (P41145 whole entry): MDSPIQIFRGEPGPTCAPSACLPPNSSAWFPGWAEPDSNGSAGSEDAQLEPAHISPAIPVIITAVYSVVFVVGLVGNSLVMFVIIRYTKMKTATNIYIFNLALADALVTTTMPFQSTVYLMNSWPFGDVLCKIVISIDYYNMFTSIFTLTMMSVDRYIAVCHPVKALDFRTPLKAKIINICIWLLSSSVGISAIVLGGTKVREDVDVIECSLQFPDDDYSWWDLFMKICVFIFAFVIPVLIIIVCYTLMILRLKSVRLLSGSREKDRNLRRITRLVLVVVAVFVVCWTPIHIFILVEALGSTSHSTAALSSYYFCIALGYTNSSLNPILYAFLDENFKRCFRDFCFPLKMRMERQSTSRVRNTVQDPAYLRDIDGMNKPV
Description: PDSP Primary Binding target: OPRK1 - Compounds are tested at 10 uM concentration, plate are incubated at room temperature in the dark for 90 minutes. Reaction are stopped by vacuum filtration onto 0.3% polyethyleneimine soaked filter mats using Filtermate harvester. Scintilation cocktail is then melted onto microwave-dried filters on a hot plate and the radio activity is counted in Microbia counter.

Chain of Beta-1 adrenergic receptor (Homo sapiens) (P08588 whole entry, looked up): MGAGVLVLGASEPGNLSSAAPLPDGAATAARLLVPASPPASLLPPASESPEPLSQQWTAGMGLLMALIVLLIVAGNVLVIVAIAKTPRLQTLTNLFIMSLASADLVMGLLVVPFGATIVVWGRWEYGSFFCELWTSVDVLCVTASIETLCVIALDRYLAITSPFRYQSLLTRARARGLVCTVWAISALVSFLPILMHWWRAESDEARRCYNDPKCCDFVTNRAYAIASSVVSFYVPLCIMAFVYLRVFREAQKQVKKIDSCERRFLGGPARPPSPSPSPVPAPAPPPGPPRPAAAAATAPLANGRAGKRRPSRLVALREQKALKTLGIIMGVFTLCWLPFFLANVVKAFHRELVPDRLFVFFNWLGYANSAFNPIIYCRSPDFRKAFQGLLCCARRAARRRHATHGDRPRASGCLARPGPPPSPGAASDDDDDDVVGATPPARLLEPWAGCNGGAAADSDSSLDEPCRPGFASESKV
Chain of Sodium-dependent dopamine transporter (Homo sapiens) (Q01959 whole entry): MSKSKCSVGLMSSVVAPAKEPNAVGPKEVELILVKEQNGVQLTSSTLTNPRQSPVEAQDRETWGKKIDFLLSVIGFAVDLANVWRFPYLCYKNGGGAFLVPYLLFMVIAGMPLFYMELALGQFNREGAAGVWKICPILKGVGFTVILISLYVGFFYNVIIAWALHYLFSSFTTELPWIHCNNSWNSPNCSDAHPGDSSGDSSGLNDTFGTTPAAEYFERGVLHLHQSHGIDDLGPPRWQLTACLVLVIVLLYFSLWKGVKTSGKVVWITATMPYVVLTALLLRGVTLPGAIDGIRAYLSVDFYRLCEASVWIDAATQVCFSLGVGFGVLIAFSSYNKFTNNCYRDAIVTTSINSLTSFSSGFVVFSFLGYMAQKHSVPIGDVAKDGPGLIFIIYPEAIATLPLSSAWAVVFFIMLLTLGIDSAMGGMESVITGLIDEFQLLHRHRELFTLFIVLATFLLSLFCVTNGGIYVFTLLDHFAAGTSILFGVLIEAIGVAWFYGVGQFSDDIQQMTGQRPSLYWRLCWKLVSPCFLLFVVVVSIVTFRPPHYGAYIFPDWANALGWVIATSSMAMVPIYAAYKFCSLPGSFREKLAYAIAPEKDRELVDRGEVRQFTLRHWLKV
Chain of Translocator protein (Homo sapiens) (P30536 whole entry): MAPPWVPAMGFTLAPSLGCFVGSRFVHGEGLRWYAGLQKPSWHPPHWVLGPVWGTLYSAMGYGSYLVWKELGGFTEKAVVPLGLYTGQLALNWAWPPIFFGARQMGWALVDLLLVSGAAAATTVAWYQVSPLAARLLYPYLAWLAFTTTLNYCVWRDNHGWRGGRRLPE
Chain of 5-hydroxytryptamine receptor 6 (Homo sapiens) (P50406 whole entry): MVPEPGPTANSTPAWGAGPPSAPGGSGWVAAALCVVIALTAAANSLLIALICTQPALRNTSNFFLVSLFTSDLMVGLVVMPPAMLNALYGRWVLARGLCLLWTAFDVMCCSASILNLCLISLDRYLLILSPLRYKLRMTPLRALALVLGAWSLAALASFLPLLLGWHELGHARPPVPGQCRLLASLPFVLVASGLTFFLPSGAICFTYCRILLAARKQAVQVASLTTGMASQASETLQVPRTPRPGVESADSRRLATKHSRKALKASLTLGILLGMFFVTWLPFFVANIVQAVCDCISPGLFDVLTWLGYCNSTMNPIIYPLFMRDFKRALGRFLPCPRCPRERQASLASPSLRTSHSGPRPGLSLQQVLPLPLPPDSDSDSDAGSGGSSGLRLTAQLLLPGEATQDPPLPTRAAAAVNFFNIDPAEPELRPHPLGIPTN
Chain of D(1A) dopamine receptor (Homo sapiens) (P21728 whole entry): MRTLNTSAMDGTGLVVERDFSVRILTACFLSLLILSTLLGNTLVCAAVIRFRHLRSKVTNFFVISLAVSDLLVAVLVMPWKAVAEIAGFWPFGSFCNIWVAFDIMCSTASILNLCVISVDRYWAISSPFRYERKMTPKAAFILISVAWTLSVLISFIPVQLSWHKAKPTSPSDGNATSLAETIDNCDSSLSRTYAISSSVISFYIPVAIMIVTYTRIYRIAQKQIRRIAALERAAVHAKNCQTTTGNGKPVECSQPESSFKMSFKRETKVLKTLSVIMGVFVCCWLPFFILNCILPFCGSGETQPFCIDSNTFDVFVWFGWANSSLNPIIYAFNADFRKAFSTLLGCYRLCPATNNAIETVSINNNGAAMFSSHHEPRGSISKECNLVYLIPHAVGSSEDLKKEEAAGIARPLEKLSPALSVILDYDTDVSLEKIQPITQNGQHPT
Chain of 5-hydroxytryptamine receptor 1B (Homo sapiens) (P28222 whole entry): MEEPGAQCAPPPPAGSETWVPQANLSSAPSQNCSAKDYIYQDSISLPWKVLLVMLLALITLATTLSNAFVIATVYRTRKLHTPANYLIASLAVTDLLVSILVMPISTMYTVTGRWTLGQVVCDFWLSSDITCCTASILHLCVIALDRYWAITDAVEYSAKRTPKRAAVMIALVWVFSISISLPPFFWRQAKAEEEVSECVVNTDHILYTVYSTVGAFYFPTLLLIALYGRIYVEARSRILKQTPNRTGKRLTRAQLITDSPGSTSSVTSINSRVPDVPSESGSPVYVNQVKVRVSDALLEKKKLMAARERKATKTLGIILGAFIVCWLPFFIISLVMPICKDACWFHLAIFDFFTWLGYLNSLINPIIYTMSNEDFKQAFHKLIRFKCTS
Chain of 5-hydroxytryptamine receptor 1E (Homo sapiens) (P28566 whole entry): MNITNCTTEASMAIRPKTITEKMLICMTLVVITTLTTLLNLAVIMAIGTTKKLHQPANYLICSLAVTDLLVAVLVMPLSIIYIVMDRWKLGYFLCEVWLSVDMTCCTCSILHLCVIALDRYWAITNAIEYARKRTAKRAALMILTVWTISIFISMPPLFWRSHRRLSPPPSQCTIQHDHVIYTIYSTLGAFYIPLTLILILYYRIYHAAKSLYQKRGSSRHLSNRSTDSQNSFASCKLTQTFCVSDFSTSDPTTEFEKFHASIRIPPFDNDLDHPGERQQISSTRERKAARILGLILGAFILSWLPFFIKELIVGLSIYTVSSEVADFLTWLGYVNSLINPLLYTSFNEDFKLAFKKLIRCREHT
Chain of 5-hydroxytryptamine receptor 5A (Homo sapiens) (P47898 whole entry): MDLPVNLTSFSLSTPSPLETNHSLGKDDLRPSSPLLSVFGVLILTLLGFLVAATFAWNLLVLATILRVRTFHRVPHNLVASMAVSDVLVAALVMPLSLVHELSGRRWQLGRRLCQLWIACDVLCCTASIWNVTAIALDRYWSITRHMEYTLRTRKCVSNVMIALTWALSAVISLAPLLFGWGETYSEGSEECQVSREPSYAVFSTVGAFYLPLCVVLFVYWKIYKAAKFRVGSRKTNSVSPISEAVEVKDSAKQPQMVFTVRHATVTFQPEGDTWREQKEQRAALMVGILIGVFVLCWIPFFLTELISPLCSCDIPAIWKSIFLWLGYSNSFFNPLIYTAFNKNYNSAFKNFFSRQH
Chain of D(2) dopamine receptor (Homo sapiens) (P14416 whole entry): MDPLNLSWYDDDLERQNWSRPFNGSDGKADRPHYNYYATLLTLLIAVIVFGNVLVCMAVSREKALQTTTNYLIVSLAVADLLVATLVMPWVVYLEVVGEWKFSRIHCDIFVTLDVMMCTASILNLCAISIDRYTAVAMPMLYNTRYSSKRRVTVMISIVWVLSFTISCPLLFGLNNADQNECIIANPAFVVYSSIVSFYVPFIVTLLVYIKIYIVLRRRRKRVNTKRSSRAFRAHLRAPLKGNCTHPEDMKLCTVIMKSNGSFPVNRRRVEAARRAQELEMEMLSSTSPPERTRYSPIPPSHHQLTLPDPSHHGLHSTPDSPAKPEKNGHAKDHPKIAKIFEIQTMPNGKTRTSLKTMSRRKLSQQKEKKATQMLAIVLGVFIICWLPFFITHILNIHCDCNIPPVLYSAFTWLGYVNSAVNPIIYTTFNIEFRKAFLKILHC
Chain of Beta-2 adrenergic receptor (Homo sapiens) (P07550 whole entry, looked up): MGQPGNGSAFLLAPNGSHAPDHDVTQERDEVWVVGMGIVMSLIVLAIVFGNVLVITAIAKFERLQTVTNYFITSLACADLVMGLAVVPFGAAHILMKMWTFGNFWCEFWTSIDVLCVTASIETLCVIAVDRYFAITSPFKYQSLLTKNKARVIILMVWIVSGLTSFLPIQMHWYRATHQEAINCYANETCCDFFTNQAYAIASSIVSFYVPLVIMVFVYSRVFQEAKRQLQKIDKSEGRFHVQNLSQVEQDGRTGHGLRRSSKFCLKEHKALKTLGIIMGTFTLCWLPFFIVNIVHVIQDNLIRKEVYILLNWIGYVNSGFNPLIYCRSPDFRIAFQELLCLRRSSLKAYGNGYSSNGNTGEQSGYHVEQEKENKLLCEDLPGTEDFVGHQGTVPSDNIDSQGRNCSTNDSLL

Structure (SMILES)	inhibition [1] [%]	inhibition [2] [%]	inhibition [3] [%]	inhibition [4] [%]	inhibition [5] [%]	inhibition [6] [%]	inhibition [7] [%]	inhibition [8] [%]	inhibition [9] [%]	inhibition [10] [%]	inhibition [11] [%]	inhibition [12] [%]	inhibition [13] [%]	inhibition [14] [%]	inhibition [15] [%]	inhibition [16] [%]
CCCCc1nc(Cl)c(CO)n1Cc1ccc(-c2ccccc2-c2nnn[nH]2)cc1	16.9	17.6	10.3	37	-5.3	8.7	5.8	7.06	-0.59	19.9	-3.17	23.9	–	–	–	–
Cc1nc(-c2ccc(-c3ccc(C(=O)N4CCc5cc6c(cc54)C4(CCN(C)CC4)CO6)cc3)c(C)c2)no1	14	-6.79	53.5	16.6	23	-1.95	24.4	0.78	27.9	9.17	95.1	29	70.2	10.4	69.5	–
CN(C)C(=O)C(CCN1CCC(O)(c2ccc(Cl)cc2)CC1)(c1ccccc1)c1ccccc1	23.2	14.9	2.24	54.2	-6.62	-4.2	50	18.4	42.9	41.4	20.1	16.2	64.3	44.6	–	–
C[C@H](Cc1cc2c(c(C(N)=O)c1)N(CCCO)CC2)NCCOc1ccccc1OCC(F)(F)F	25.3	–	-5.84	63.3	-8.65	31.1	2.96	-4.65	90.7	100	92.3	55.5	35.5	99	69.7	4.22
Cc1ccccc1C(=O)Nc1ccc(C(=O)N2CCCC(O)c3cc(Cl)ccc32)c(C)c1 (stereo not drawn)	11.7	1.21	9.57	20	-6.02	12.2	35.6	0.51	8.56	7.65	14.4	9.21	21.9	–	17.5	21
CCc1cc(C(C)=O)c(O)cc1OCCCCCC(C)(C)c1nn[nH]n1	8.4	8.17	1.9	22.6	-4.28	18.3	-1.68	–	8.06	-8.57	14.7	8.34	32.8	–	15.2	16.9
COc1ccc(C2(O)OC(=O)C(c3ccc4c(c3)OCO4)=C2Cc2cc(OC)c(OC)c(OC)c2)cc1 (stereo not drawn)	4.51	-2.9	-7.61	7.04	1.32	-2.63	37	-4.29	3.1	8.87	2.7	-2.26	27.4	–	-2.96	9.13
Oc1ccc2c3c1O[C@H]1c4[nH]c5c(c4C[C@@]4(O)[C@@H](C2)N(CC2CC2)CC[C@]314)C[C@@]1(O)[C@H]2Cc3ccc(O)c4c3[C@@]1(CCN2CC1CC1)[C@H]5O4	8.31	11.4	33.5	14.9	-2.79	1.77	21.5	–	30.1	–	13.6	1.13	-4.44	-6.53	8.68	105
CSc1ccc(C(=O)N[C@@H]2CCCC[C@@H]2NC(=O)CNC(=O)c2cc(C(F)(F)F)ccc2NC(=O)NC(C)C)cc1	5.1	–	-8.17	3.27	6.91	-9.46	46.9	-4.02	7.53	22.6	–	45.7	28.2	6.71	10.8	15.3
O=C(c1cc2c(cc1F)OC(c1ccc(F)cc1)(c1ccc(Cl)cc1Cl)O2)N1CCOCC1 (stereo not drawn)	-2.04	-8.59	48	29.6	–	8.99	49.3	19.9	14.6	5.52	27.6	5.49	59	5.79	28.5	71.4
CN1C2CCC1CC(OC(c1ccc(F)cc1)c1ccc(F)cc1)C2 (stereo not drawn)	83.1	96.1	83	21	95.6	33	47.8	14.3	98.7	21.6	27.7	67.8	96.9	-6.19	–	65.7
